From US6323195A, “Galanthamine derivatives as acetylcholinesterase inhibitors” (priority 1993, dated 2001) come the findings set out here.

Counter-ions that a name gives are not always drawn.

By IC50 is commonly meant the concentration that inhibits the measured activity by half. A higher IC50 goes with lower potency.

One assay concerns the target acetylcholinesterase (Homo sapiens, UniProt P22303). Nature of the assay: Acetylcholinesterase Inhibition Assay (photometric method of Ellman et al.). It is filed as biochemical. For orientation: Ellman's reagent forms a yellow product with free thiols.
Another assay relates to mice. It is filed as in vivo. Conditions: SDDA Dose 0.003 mg/kg, s.c., retest after 24 hours. The protocol: This utility can also be ascertained by determining the ability of these compounds to restore cholinergically deficient memory in the Dark Avoidance Assay. In this assay mice are tested for their ability to remember an unpleasant stimulus for a period of 24 hours. A mouse is placed in a chamber that contains a dark compartment; a strong incandescent light drives it to the dark compartment, where an electric shock is administered through metal plates on the floor. The animal is removed from the testing apparatus and tested again, 24 hours later, for the ability to remember the electric shock.
If scopolamine, an anticholinergic that is known to cause memory impairment, is administered before an animal's initial exposure to the test chamber, the animal re-enters the dark compartment shortly after being placed in the test chamber 24 hours later. This effect of scopolamine is blocked by an active test compounds, resulting in a greater interval before reentry into the dark compartment.
The test results are expressed as the percent of a group of animals in which the effect of scopolamine is blocked, as manifested by an increased interval between being placed in the test chamber and reentering the dark compartment. Results of Dark Avoidance Assay for some of the compounds of this invention are presented in Table II along with a result for a reference compounds.

Chain of acetylcholinesterase (P22303 32-614): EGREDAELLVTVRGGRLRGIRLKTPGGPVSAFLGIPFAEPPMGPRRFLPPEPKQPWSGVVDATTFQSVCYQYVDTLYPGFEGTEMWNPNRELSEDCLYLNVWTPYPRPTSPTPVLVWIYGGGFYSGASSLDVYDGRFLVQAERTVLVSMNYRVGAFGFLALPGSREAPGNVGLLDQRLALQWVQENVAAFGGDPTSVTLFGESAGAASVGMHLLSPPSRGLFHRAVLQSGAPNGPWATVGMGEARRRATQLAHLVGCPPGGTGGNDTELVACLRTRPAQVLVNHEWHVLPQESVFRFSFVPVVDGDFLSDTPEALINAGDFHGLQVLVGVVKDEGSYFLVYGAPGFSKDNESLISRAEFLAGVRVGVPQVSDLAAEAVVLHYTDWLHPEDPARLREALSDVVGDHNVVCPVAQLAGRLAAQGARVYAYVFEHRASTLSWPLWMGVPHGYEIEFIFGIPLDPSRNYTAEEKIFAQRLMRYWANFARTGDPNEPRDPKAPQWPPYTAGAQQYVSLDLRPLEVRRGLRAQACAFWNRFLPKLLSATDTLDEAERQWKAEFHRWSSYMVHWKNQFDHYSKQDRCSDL

On acetylcholinesterase, `CN1CC[C@@]23C=C[C@H](O)C[C@@H]2Oc2c(OC(=O)N4CCc5ccccc5C4)ccc(c23)C1` [Example 2, (6-O-Demethyl)-6-O-(1,2,3,4-tetrahydroisoquinolin-2-yl)carbonyl]-galanthamine hydrochloride] yielded an IC50 of 0.9 nM. Moreover, the “Percent of Animals with Scopolamine Induced Memory Deficit Reversal” value with mice was 27% of Animals.
